Laboratory results from patent publication EP0979831B1, “Antibacterial peptides and antibacterial agents containing such peptides as an effective ingredient” (National Institute of Agrobiological Sciences, priority 1998, dated 2003).
In brackets after ≈: the same amount, converted by molar mass. Residues, ends and D or L forms follow the SMILES beside them.

System: Escherichia coli
Type: cell-based
Description: Minimum Inhibitory Concentration (MIC) of these antibacterial peptides (1) to (5) against Staphylococcus aureus, methicillin resistant Staphylococcus aureus (MRSA), Escherichia coli and Pseudomonas aeruginosa was determined.

MIC E coli [µg/mL] | Compound
4 (≈ 3.63 µM) | CC[C@H](C)[C@H](NC(=O)[C@H](C)NC(=O)[C@H](CC(C)C)NC(=O)[C@H](Cc1ccc(O)cc1)NC(=O)[C@H](CC(C)C)NC(=O)[C@H](C)N)C(=O)N[C@@H](CCCNC(=N)N)C(=O)N[C@@H](CCCCN)C(=O)N[C@@H](CCCNC(=N)N)C(N)=O [present peptide (4), Ala Leu Trp Leu Ala Ile Arg Lys Arg]
10 (≈ 8.89 µM) | CC[C@H](C)[C@H](NC(=O)[C@H](C)NC(=O)[C@H](CC(C)C)NC(=O)[C@H](Cc1c[nH]c2ccccc12)NC(=O)[C@H](CC(C)C)NC(=O)[C@H](C)N)C(=O)N[C@@H](CCCNC(=N)N)C(=O)N[C@@H](CCCCN)C(=O)N[C@@H](CCCNC(=N)N)C(N)=O [present peptide (5), Ala Leu Trp Leu Ala Ile Arg Lys Arg] (H-ALWLAIRKR-NH2)

The remaining lines, values behind:

Compound | MIC E coli [µg/mL]
CC[C@H](C)[C@H](NC(=O)[C@H](C)NC(=O)[C@H](CC(C)C)NC(=O)[C@H](CCCNC(=N)N)NC(=O)[C@H](CC(C)C)NC(=O)[C@H](C)N)C(=O)N[C@@H](CCCNC(=N)N)C(=O)N[C@@H](CCCCN)C(=O)N[C@@H](CCCNC(=N)N)C(N)=O [present peptide (1), Ala Leu Arg Leu Ala Ile Arg Lys Arg] (H-ALRLAIRKR-NH2) | 4 (≈ 3.65 µM)
CC[C@H](C)[C@H](NC(=O)[C@H](C)NC(=O)[C@H](CC(C)C)NC(=O)[C@H](CC(C)C)NC(=O)[C@H](CC(C)C)NC(=O)[C@H](C)N)C(=O)N[C@@H](CCCNC(=N)N)C(=O)N[C@@H](CCCCN)C(=O)N[C@@H](CCCNC(=N)N)C(N)=O [present peptide (2), Ala Leu Leu Leu Ala Ile Arg Lys Arg] (H-ALLLAIRKR-NH2) | 6 (≈ 5.7 µM)
CC[C@H](C)[C@H](NC(=O)[C@H](C)NC(=O)[C@H](CC(C)C)NC(=O)[C@H](CC(C)C)NC(=O)[C@H](Cc1c[nH]c2ccccc12)NC(=O)[C@H](C)N)C(=O)N[C@@H](CCCNC(=N)N)C(=O)N[C@@H](CCCCN)C(=O)N[C@@H](CCCNC(=N)N)C(N)=O [present peptide (3), Ala Trp Leu Leu Ala Ile Arg Lys Arg] (H-AWLLAIRKR-NH2) | 5 (≈ 4.44 µM)
